From publication PMC4413647, “Simultaneous targeting of androgen receptor (AR) and MAPK-interacting kinases (MNKs) by novel retinamides inhibits growth of human prostate cancer cell lines” (Oncotarget, 2014) come the findings set out here.

For orientation: GI50 means the concentration at which growth is held to half of that of the control.

One assay concerns C4-2B cells. Briefly: MTT cell proliferation assay, 7 d, C4-2B. Type of assay: cell-based. The following applies: Homo sapiens, 168 h, 7 d treatment. The source says:
(§1) Androgen-dependent (LNCaP), androgen-independent (PC-3) and castration resistant (C4-2B and 22Rv1) human prostate carcinoma cells were procured from American Type Culture Collection, Manassas, VA, USA and maintained in RPMI 1640 media (Gibco-Life Technologies, Grand Island, NY, USA) supplemented with 10% fetal bovine serum and 1% penicillin/streptomycin. […] Immortalized untransformed prostate epithelial cells, PWR1E from American Type Culture Collection were maintained in serum-free Keratinocyte media (Gibco) supplemented with epidermal growth factor and bovine pituitary extract. All cell lines were maintained in a 37 °C/5% CO2 humidified atmosphere.
(§2) Cell proliferation assay was performed as described previously. For cell growth experiment, cells were treated with the NRs for 7 days. MTT assay was performed at the end of the experiment. Calculations of combination indices were done using the Calcusyn program (Biosoft, Cambridge, United Kingdom). For colony formation assay, cells were plated 1000 per well in complete media and allowed to adhere for 24 h. The next day cells were treated with indicated compounds (5 μM). After 24 h compound containing media were removed, and cells were allowed to form colonies in complete media. Approximately 2 weeks later the colonies were fixed, stained with 0.5% crystal violet (sigma) for 30 min and counted manually. Results represent the mean ± standard deviation of three independent experiments.
(Tetrazolium assays rely on reduction of a dye to a coloured formazan, in cell work by metabolically active cells.)

Assay [1] has as its system PC-3 cells. Briefly: MTT cell proliferation assay, 7 d, PC-3. Format: cell-based. The following applies: Homo sapiens, PC-3, 168 h, 7 d treatment.
From the text: as §1, §2

For assay [2], the system named is PC-3 cells. Briefly: Wound healing migration assay. Type of assay: cell-based, human. The following applies: 5 μM, 24 h. Here is the method: Figure 5 Anti-migratory and anti-invasive potential of NRs (A) Effect of NRs treatment (5 μmol/L) on PC-3 cell migration was assessed by wound healing assay after 24 h of wound formation. Representative photomicrographs of initial and final wounds are shown at 100x magnification. (B) Effect of NRs on PC-3 cell invasion was evaluated by transwell migration assay. PC-3 cells were seeded on matrigel coated boyden chamber and treated with NRs (5 μmol/L, 24 h). Photographs represent the extent of cell invasion in each of the treated cells. (C) Western blot analysis of the effect of NRs on the expression of cadherins in PC-3 cells. Cells were treated with indicated compound 20 μmol/L for 24 h. […] For wound healing assay highly metastatic PC-3 cells were plated in a 24 well plate at a seeding density of 5 × 10^5 cells/ well and allowed to form a confluent monolayer for 24 h. Cells were made dormant by pretreating with 0.5 μmol/L mitomycin C for 2 h to ensure that wounds are filled due to cell migration and not by cell proliferation. Subsequently, the monolayer was scratched with a pipette tip, washed with media to remove floating cells, and photographed (time 0 h). Cells were then treated with indicated compounds (5 μM) and the experiment was terminated as soon as wound was completely filled in vehicle treated controls. Cells were then photographed again using Nikon TE2000 microscope at three randomly selected sites per well [43].

A further assay concerns MR49F cells. Briefly: MTT growth inhibition in Enzalutamide resistant MR49F cells. Type of assay: cell-based, human. The following applies: Homo sapiens, MR49F; read-out: GI50 MR49F (Figure 2C). Here is the method:
Figure 2 Effect of NRs on PCa cell growth and colony formation (A) Representative photographs of colonies formed in PCa cells at 14th day after initial treatment with specified compounds (5 μmol/L). Colonies were fixed with methanol and stained with crystal violet. (B) Data represents the mean ± S.E from three independent experiments. *, P< 0.05; ♣, P<0.01 compared to vehicle treated control. […] NRs that had promising inhibitory effect on cell proliferation on LNCaP cells were tested for their growth inhibitory effect in MR49F cells in comparison with Casodex and Abiraterone acetate by MTT assay.
as §1, §2

Assay [3] has as its system PC-3 cells. Briefly: Boyden chamber matrigel invasion assay. The following applies: PC-3, 5 μM, 24 h. Format: cell-based, human. Here is the method:
Figure 5 Anti-migratory and anti-invasive potential of NRs (A) Effect of NRs treatment (5 μmol/L) on PC-3 cell migration was assessed by wound healing assay after 24 h of wound formation. Representative photomicrographs of initial and final wounds are shown at 100x magnification. (B) Effect of NRs on PC-3 cell invasion was evaluated by transwell migration assay. PC-3 cells were seeded on matrigel coated boyden chamber and treated with NRs (5 μmol/L, 24 h). Photographs represent the extent of cell invasion in each of the treated cells. (C) Western blot analysis of the effect of NRs on the expression of cadherins in PC-3 cells. Cells were treated with indicated compound 20 μmol/L for 24 h.
The invasion assay in PC-3 cells was performed using Matrigel (BD Biosciences, Bedford, MA, USA)-coated transwell cell culture chambers (8 μm pore size, EMD Millipore, Temecula, CA, USA) as described previously (43). Briefly, PC-3 cells (5 × 10^4 cells/well) were cultured in the upper chamber of the transwell insert for 24 h in serum-free RPMI-1640 medium. The cells were then treated with 5 μM of indicated compounds for 24 h. RPMI-1640 medium containing 10% FBS was placed in the lower chamber. At the end of incubation, the top surface of the non-migrated cells were scraped gently with cotton swabs and the cells on the lower surface of the membrane (migrated cells) were fixed for 15 min with cold methanol and stained with crystal violet. Cells that had migrated to the bottom of the membrane were visualized and counted using an inverted microscope. For each replicate (n = 3), cells in three randomly selected fields were counted and averaged.

The next assay deals with LNCaP cells. Briefly: Cell cycle FACS analysis (PI staining). Type of assay: cell-based, human. The following applies: 5 μM, 24 h, untreated control 37.1%. Here is the method:
Figure 4 Effect of NRs on cell cycle and apoptosis (A) LNCaP cells treated with 5 μM of NRs and other compounds for 24 h were stained with PI and analysed with a FACS calibur flow cytometer. (B) Total cell lysates from PCa cells treated with 20 μM of NRs were separated by SDS-PAGE and probed with cyclin D1 and B antibodies. […] (C) LNCaP cells were treated with indicated compounds (5 μmol/L) for 24 h and apoptosis induction was examined by oligonucleosomal fragmentation. Data are shown relative to vehicle treated control and the bars are means of three replicate determinations plus standard deviations. *, P< 0.01; ♣, P<0.05 compared with vehicle treated control. […] After 24 h the plates were analyzed for apoptotic and viable cells using acridine orange/ethidium bromide staining. […] (F) Apoptosis induction in LNCaP cells treated with 5 μmol/L of VNLG-147 and -152 in the presence or absence of ZVAD (5 μmol/L) was assessed by oligonucleosomal fragmentation after 24 h incubation. *, P< 0.05 compared with vehicle treated control. […]
Cells were harvested by trypsinization and then ﬁxed with 70% ethanol for 24 h at 4 °C. […] Stained cells were analyzed with a ﬂow cytometer using FlowJo software that exploits Watson algorithm to find out peak and S-phase populations from a univariate distribution curve.
For orientation: Flow cytometry measures light scatter and fluorescence of single cells or particles in a stream.

Consider `CC1=C(/C=C/C(C)=C/C=C/C(C)=C/C(=O)Nc2ccc(F)cc2)C(C)(C)CCC1n1ccnc1` (racemic) [VNLG-152], for which the GI50 in the assay on C4-2B cells came out at 1540 nM; in the assay on PC-3 cells [1], 5.62 µM; in the assay on MR49F cells, 3.89 µM. The “PC-3 cell migration to the denuded zone” value with PC-3 cells [2] is “potentially suppressed”. Further, the “percentage of cell invasion compared to control” value with PC-3 cells [3] amounted to 13. Moreover, the “percentage of cells in G1 phase” value in the assay on LNCaP cells stood at 74.6%.
